From patent US12358907B2, “Substituted pyrrolidine amides III” (GRÜNENTHAL GMBH, priority 2019, dated 2025) come the findings set out here.

For orientation: IC50 means the concentration that inhibits the measured activity by half.

Where two headings read alike, the source gives them in different places.

This assay concerns the target glucocorticoid receptor (GAL4 DBD-GR) (Homo sapiens (Human), UniProt P04150). Nature of the assay: GR cell-based assays (GRE agonist / GRE antagonist), CHO-Gal4/GR luciferase reporter. The source says:
Potential selective glucocorticoid receptor modulators of this intervention can be tested for modulation of the activity of the glucocorticoid receptor using cell-based assays. These assays involve a Chinese hamster ovary (CHO) cell line which contains fragments of the glucocorticoid receptor as well as fusion proteins. The glucocorticoid receptor fragments used are capable of binding the ligand (e.g. beclomethasone) to identify molecules that compete for binding with glucocorticoid receptor ligands. In more detail, the glucocorticoid receptor ligand binding domain is fused to the DNA binding domain (DBD) of the transcription factor GAL4 (GAL4 DBD-GR) and is stably integrated into a CHO cell line containing a GAL4-UAS-Luciferase reporter construct. […] After cell lysis the luminescence that is produced by luciferase after addition of the substrate is detected and EC50 or IC50 values can be calcuated. Engagement of molecules which induce gene expression via glucocortocoid receptor binding to the DNA leads to expression of the luciferase gene under the control of the fusion protein GAL4 DBD-GR and therefore to a dose-dependent increase of the luminescence signal. Binding of molecules which repress beclomethasone-induced gene expression of the luciferase gene under the control of the fusion protein GAL4 DBD-GR leads to a dose-dependent reduction of the luminescence signal.
The reporter cell line CHO-Gal4/GR consisted of a chinese hamster ovary (CHO) cell line (Leibniz Institute DSMZ—German Collection of Microorganisms and Cell Cultures GmbH: ACC-110) containing a firefly luciferase gene under the control of the GR ligand binding domain fused to the DNA binding domain (DBD) of GAL4 (GAL4 DBD-GR) stably integrated into CHO cells. This cell line was established by stable transfection of CHO cells with a GAL4-UAS-Luciferase reporter construct. In a subsequent step the ligand binding domain of the GR cloned into pIRES2-EGFP-GAL4 containing the DNA binding domain of GAL4 from pFA-AT2 was transfected. This fusion construct activated firefly luciferase expression under the control of a multimerized GAL4 upstream activation sequence (UAS). The signal of the emitted luminescence was recorded by the FLIPR^TETRA. This allowed for specific detection of ligand-induced activation of the GR and therefore for the identification of compounds with agonistic properties. The GAL4/UAS reporter was premixed with a vector that constitutively expressed Renilla luciferase, which served as an internal positive control for transfection efficiency.
The complete culture medium for the assay was: • DMEM F-12 (1:1) MIXTURE (LONZA cat. No: BE04-687F/U1) 500 mL • 5 mL of 100 mM Sodium Pyruvate (LONZA cat. No: BE12-115E) • 25 mL of 7.5% Sodium Bicarbonate (LONZA cat. No BE17-613E) • 6.5 mL of 1 M Hepes (LONZA cat. No: BE17-737E) • 5 mL of 100× Penicillin/Streptomycin (LONZA cat. No DE17-602E) • 50 mL of Fetal Bovine Serum (Euroclone cat. No ECS 0180L) • 0.25 mL of 10 mg/mL Puromycin (InvivoGen cat.: ant-pr-1) • 0.5 mL of 100 mg/mL Zeocin (InvivoGen cat.: ant-zn-1)
Cryo-preserved CHO-Gal4/GR cells were suspended in complete medium and 5000 cells/25 μl/well were seeded into the wells of 384-well polystyrene assay plates (Thermo Scientific, cat. #4332) and cultured at 37° C., 5% CO2 and 95% humidity. After 24 hours growth medium was carefully removed and replaced by 30 μl Opti-MEM (GIBCO, cat. #31985062) as assay buffer. To test the compounds an 8-point half-log compound dilution curve was generated in 100% DMSO starting from a 2 mM stock and compounds were then diluted 1:50 in Opti-MEM. 10 μl of compounds were then added to the wells containing 30 μl Opti-MEM resulting in a final assay concentration range from 10 μM to 0.003 μM in 0.5% DMSO. Compounds were tested at 8 concentrations in quadruplicate data points. […] Finally, cells were lysed with 20 μl of Triton/Luciferin solution and the signal of the emitted luminescence was recorded at the FLIPR^TETRA for 2 minutes. […]
For orientation: Reporter assays use an easily measured gene product as a stand-in for the process of interest.

[1] abbreviates: CHO-Gal4/GR reporter cells, agonist mode (EC50) or antagonist mode against beclometasone (IC50), 6 hour incubation.

Chain of glucocorticoid receptor (GAL4 DBD-GR) (P04150 524-758): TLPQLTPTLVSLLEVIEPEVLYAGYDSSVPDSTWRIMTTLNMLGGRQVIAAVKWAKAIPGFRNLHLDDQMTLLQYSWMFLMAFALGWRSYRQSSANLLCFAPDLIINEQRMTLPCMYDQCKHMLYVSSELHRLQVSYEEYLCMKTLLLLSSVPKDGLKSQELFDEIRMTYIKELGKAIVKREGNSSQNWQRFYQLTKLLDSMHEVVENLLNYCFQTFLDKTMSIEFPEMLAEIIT

On to `Cc1cccc([C@@H]2[C@@H](NC(=O)C3CC3)[C@H](C)C(=O)N2c2ccc3c(cnn3-c3ccc(F)cc3)c2)c1` (racemic) [Example 63, N-[rac-(2R,3S,4S)-1-[1-(4-Fluorophenyl)-1H-indazol-5-yl]-4-methyl-2-m-tolyl-5-oxo-pyrrolidin-3-yl]-cyclopropanecarboxylic acid amide], for which the IC50 (read-out: IC50 or EC50) lay in the range of 100 to 1000 nM.
Still for that read-out and setting: to `COc1ccc([C@@H]2[C@@H](NC(=O)C3CC3)[C@H](C)C(=O)N2c2ccc3c(cnn3-c3ccc(F)cc3)c2)cc1` (racemic) [Example 133, N-[rac-(2R,3S,4S)-1-[1-(4-Fluorophenyl)-1H-indazol-5-yl]-2-(4-methoxyphenyl)-4-methyl-5-oxo-pyrrolidin-3-yl]-cyclopropanecarboxylic acid amide] belongs 100 to 1000 nM.
With `Cc1cccc([C@@H]2[C@@H](NC(=O)C(C)(F)F)[C@@H](C)C(=O)N2c2ccc3c(cnn3-c3ccc(F)cc3)c2)c1` (racemic) [Example 77, 2,2-Difluoro-N-[rac-(2R,3S,4R)-1-[1-(4-fluorophenyl)-1H-indazol-5-yl]-4-methyl-2-m-tolyl-5-oxo-pyrrolidin-3-yl]-propionamide], the IC50 (read-out: IC50 or EC50) was below 100 nM.
Consider `O=C(N[C@H]1[C@H](CC(F)F)C(=O)N(c2ccc3c(cnn3-c3ccc(F)cc3)c2)[C@@H]1c1ccccc1)C1CC1` [Example 131, N-((2R,3S,4S)-4-(2,2-difluoroethyl)-1-(1-(4-fluorophenyl)-1H-indazol-5-yl)-5-oxo-2-phenylpyrrolidin-3-yl)cyclopropanecarboxamide], for which the half-inhibitory concentration (IC50) (read-out: IC50 or EC50) lay in the range of 100 to 1000 nM.
Still for that read-out and setting: to `Cc1cccc([C@@H]2[C@@H](NC(=O)c3ncccn3)[C@H](C)C(=O)N2c2ccc3c(cnn3-c3ccc(F)cc3)c2)c1` (racemic) [Example 69, N-[rac-(2R,3S,4S)-1-[1-(4-Fluorophenyl)-1H-indazol-5-yl]-4-methyl-2-m-tolyl-5-oxo-pyrrolidin-3-yl]-pyrimidine-2-carboxylic acid amide] belongs below 100 nM.
The same measure, in the same setting: to `Cc1ncsc1C(=O)N[C@H]1[C@H](c2ccccc2)N(c2ccc3c(cnn3-c3ccc(F)cc3)c2)C(=O)C1(C)C` [Example 38a, N-((2S,3R)-1-(1-(4-fluorophenyl)-1H-indazol-5-yl)-4,4-dimethyl-5-oxo-2-phenylpyrrolidin-3-yl)-4-methylthiazole-5-carboxamide] belongs 100 to 1000 nM; to `COc1ccc([C@@H]2[C@@H](NC(=O)c3ncccn3)[C@H](C)C(=O)N2c2ccc3c(cnn3-c3ccc(F)cc3)c2)cc1` (racemic) [Example 85, N-[rac-(2R,3S,4S)-1-[1-(4-Fluorophenyl)-1H-indazol-5-yl]-2-(4-methoxyphenyl)-4-methyl-5-oxo-pyrrolidin-3-yl]-pyrimidine-2-carboxylic acid amide], 100 to 1000 nM.
Still for that read-out and setting: to `CC[C@@]1(C)C(=O)N(c2ccc3c(cnn3-c3ccc(F)cc3)c2)[C@H](c2ccccc2)[C@H]1NC(=O)C1CC1` (racemic) [Example 134, N-(rac-(2R,3S,4R)-4-ethyl-1-(1-(4-fluorophenyl)-1H-indazol-5-yl)-4-methyl-5-oxo-2-phenylpyrrolidin-3-yl)cyclopropanecarboxamide] belongs 100 to 1000 nM; to `CC1(C)C(=O)N(c2ccc3c(cnn3-c3ccc(F)cc3)c2)[C@H](c2ccccc2)[C@H]1NC(=O)c1cnco1` [Example 36a, N-((2R,3S)-1-(1-(4-fluorophenyl)-1H-indazol-5-yl)-4,4-dimethyl-5-oxo-2-phenylpyrrolidin-3-yl)oxazole-5-carboxamide], 100 to 1000 nM.
As for `C[C@H]1C(=O)N(c2ccc3c(cnn3-c3ccc(F)cc3)c2)[C@H](c2ccc(Cl)s2)[C@H]1NC(=O)C1CC1` (racemic) [Example 124, N-[rac-(2S,3S,4R)-2-(5-Chloro-thiophen-2-yl)-1-[1-(4-fluorophenyl)-1H-indazol-5-yl]-4-methyl-5-oxo-pyrrolidin-3-yl]-cyclopropanecarboxylic acid amide], the concentration for half-maximal inhibition (IC50) (read-out: IC50 or EC50) was below 100 nM.
Turning to `Cc1cccc([C@@H]2[C@@H](NC(=O)c3scnc3C)[C@H](C)C(=O)N2c2ccc3c(cnn3-c3ccc(F)cc3)c2)c1` (racemic) [Example 67, N-[rac-(2R,3S,4S)-1-[1-(4-Fluorophenyl)-1H-indazol-5-yl]-4-methyl-2-m-tolyl-5-oxo-pyrrolidin-3-yl]-4-methyl-thiazole-5-carboxylic acid amide], the half-maximal inhibitory concentration (IC50) (read-out: IC50 or EC50) is below 100 nM.
The same measure, in the same setting: in the case of `C[C@@]1(CC2CC2)C(=O)N(c2ccc3c(cnn3-c3ccc(F)cc3)c2)[C@H](c2ccccc2)[C@H]1NC(=O)C1CC1` (racemic) [Example 149, N-(rac-(2R,3S,4S)-4-(cyclopropylmethyl)-1-(1-(4-fluorophenyl)-1H-indazol-5-yl)-4-methyl-5-oxo-2-phenylpyrrolidin-3-yl)cyclopropanecarboxamide] it was below 100 nM.
Turning to `CC1(C)C(=O)N(c2ccc3c(cnn3-c3ccc(F)cc3)c2)[C@H](c2ccccc2)[C@H]1NS(=O)(=O)C1CC1` [Example 35a, N-((2R,3S)-1-(1-(4-fluorophenyl)-1H-indazol-5-yl)-4,4-dimethyl-5-oxo-2-phenylpyrrolidin-3-yl)cyclopropanesulfonamide], the IC50 under setting [1] was below 100 nM.
With `C[C@@]1(c2ccc(Cl)s2)[C@@H](NC(=O)C2CC2)CC(=O)N1c1ccc2c(cnn2-c2ccc(F)cc2)c1` [Example 151, N-((2S,3S)-2-(5-chlorothiophen-2-yl)-1-(1-(4-fluorophenyl)-1H-indazol-5-yl)-2-methyl-5-oxopyrrolidin-3-yl)cyclopropanecarboxamide], the IC50 (read-out: IC50 or EC50) fell in the range of 100 to 1000 nM.
As for `CC1(C)C(=O)N(c2ccc3c(cnn3-c3ccc(F)cc3)c2)[C@H](c2ccccc2)[C@H]1NC(=O)c1cccnc1` [Example 42a, N-((2R,3S)-1-(1-(4-fluorophenyl)-1H-indazol-5-yl)-4,4-dimethyl-5-oxo-2-phenylpyrrolidin-3-yl)nicotinamide], under setting [1], the IC50 is below 100 nM.
Regarding `Cc1cccc([C@@H]2[C@@H](NC(=O)c3ccn(C)n3)[C@H](C)C(=O)N2c2ccc3c(cnn3-c3ccc(F)cc3)c2)c1` (racemic) [Example 75, N-[rac-(2R,3S,4S)-1-[1-(4-Fluorophenyl)-1H-indazol-5-yl]-4-methyl-2-m-tolyl-5-oxo-pyrrolidin-3-yl]-1-methyl-1H-pyrazole-3-carboxylic acid amide], where the note is “read-out: IC50 or EC50”, the IC50 is below 100 nM.
In the case of `O=C(N[C@@H]1[C@@H](c2ccccc2)N(c2ccc3c(cnn3-c3ccc(F)cc3)c2)C(=O)[C@@H]1Cc1nccs1)C1CC1` [Example 150, N-((2R,3S,4R)-1-(1-(4-fluorophenyl)-1H-indazol-5-yl)-5-oxo-2-phenyl-4-(thiazol-2-ylmethyl)pyrrolidin-3-yl)cyclopropanecarboxamide], the half-inhibitory concentration (IC50) (read-out: IC50 or EC50) lay in the range of 100 to 1000 nM.
As to `Cc1noc(C[C@@H]2C(=O)N(c3ccc4c(cnn4-c4ccc(F)cc4)c3)[C@H](c3ccccc3)[C@H]2NC(=O)C2CC2)n1` [Example 138, N-((2R,3S,4S)-1-(1-(4-fluorophenyl)-1H-indazol-5-yl)-4-((3-methyl-1,2,4-oxadiazol-5-yl)methyl)-5-oxo-2-phenylpyrrolidin-3-yl)cyclopropanecarboxamide], the half-maximal inhibitory concentration (IC50) (read-out: IC50 or EC50) was 100 to 1000 nM.
Under setting [1], `Cc1nocc1C(=O)N[C@@H]1[C@@H](c2ccccc2)N(c2ccc3c(cnn3-c3ccc(F)cc3)c2)C(=O)C1(C)C` [Example 40a, N-((2R,3S)-1-(1-(4-fluorophenyl)-1H-indazol-5-yl)-4,4-dimethyl-5-oxo-2-phenylpyrrolidin-3-yl)-3-methylisoxazole-4-carboxamide] yielded an IC50 below 100 nM.
